The values below come from patent US20230312652A1, “NOVEL PEPTIDES AND USES THEREOF” (Aarhus Universitet, priority 2020, published 2023).

By EC50 is commonly meant the concentration giving half of the maximal effect. The low end stands for an effect from little substance, the high end for a need for much substance.

The test system of one data set is cortical neurons. Put plainly: Survival of wild-type cortical neurons, MTT assay. It counts as cell-based, mouse. The protocol: Cortical neurons were isolated from p0 wild-type mice and seeded in a density of 50.000 in a 96-well plate pre-coated with poly-L and laminin and incubated at 37° C. in a 5% C02 atmosphere. At 7 days in vitro (DIV7) the neurons were treated by changing half the media with neurobasal A with B27 containing the peptides (P2, P4 or P6) to give a finale concentration of 1 uM and further incubated. The cortical neurons were treated in a likewise manner on DIV9 and DIV11. At DIV12 half the media was removed and 3-(4,5-dimethylthiazole-2-yl)-2,5-diphenyltetrazolium bromide (MTT) was added to the media to give a finale concentration of 0.5 mg/mL. MTT is reduced by mitochondrial enzymes in active cells to an insoluble product called formazan, which can be detected by colorimetry. Thus, the colour generated reflects activity and viable cells in the culture. The neurons were incubated for 4 hours with MTT and thereafter lysed in a 50% EtOH and 50% DMSO solution. To assure proper mixing of formazan, the plate was left to shake for 30 minutes before being measured at 570 nm and 650 nm. Student's t-test was used for statistical analysis.
Further, a drug-dose response on survival for peptide P1 was assessed in a similar manner.
A general note: Formazan colour is commonly taken as a measure of viable cells.

In data set [1] the test system is HTT in GM04719 fibroblasts. In words: Huntingtin levels in Huntington's patient-derived fibroblasts (GM04719), western blotting. It counts as cell-based, human. The protocol: GM04719 was seeded at 30,000-50,000 per well in a 96-well. The following day, the cells were treated with 1 uM of P1 and incubated at 37° C. and 5% CO2 at timepoints 0-24 hours. Hereafter, the cells were lysed in RIPA lysis buffer containing cOmplete cocktail protease inhibitor. Total Huntingtin levels were analysed using antibody mab2166 (Sigma-Aldrich) by western blotting and normalized to beta-actin. To determine, whether P1 also clears the healthy allele, we further assessed levels of total HTT in fibroblast derived from a healthy individual (GM01650E), bought from Coriell Biobank.
To get a direct measurement and further validation of the selective degradation of the disease-allele another study was carried out in GM04719 fibroblasts. Here, at 30,000-50,000 were seeded per well in a 96-well. The following 3 days, the cells were treated with 1 uM of P1 every 24 hour and during this incubated at 37° C. and 5% CO2. 24 hours after third treatment, the cells were lysed in RIPA lysis buffer containing cOmplete cocktail protease inhibitor. Mutated Huntingtin levels were measured using antibody, which only detects the disease-allele (MW1 ab). Total Huntingtin levels were likewise analysed using antibody mab2166 and both were normalized to beta-actin.
For orientation: In western blotting, separated proteins are transferred to a membrane and probed.

The next data set concerns the target T1, hERG potassium channels (Homo sapiens, UniProt Q12809).
T1 construct: expressed in transfected cells
In words: hERG inhibition, manual patch-clamp in CHO cell line. The class given is cell-based. Conditions: 0.1-30 uM, room temperature. The protocol: P1 (0.1-30 uM) was evaluated in vitro in a concentration-response (relationship of the effect on electric current passing through hERG (human ether-à-go-go-related gene) potassium channels (a surrogate for IKr, the rapidly activating, delayed rectifier cardiac potassium current) stably expressed in a CHO cell line using a manual patch-clamp technique.
The hERG current was recorded at room temperature using whole-cell patch-clamp techniques. Output signals from the patch-clamp amplifier were digitized and low-pass filtered at 2.9 kHz. The recording was controlled with Patchmaster Pro software. The recording chamber with cells seeded was mounted on an inverted microscope stage. A cell in the recording chamber was randomly picked up for testing. The cell was continuously perfused from the perfusion system. A micropipette filled with ICS was used as recording electrode in the manual patch-clamp study. The micropipette was prepared on the day of the patchclamp experiment using glass capillaries (GC150TF-10, Harvard Apparatus Co., UK). From the holding potential of −80 mV, the voltage was increased to +60 mV for 850 ms to open the hERG channels. After that, the voltage was decreased to −50 mV for 1275 ms, causing a “rebound” or tail current, the peak tail current was measured and collected for data analysis. Finally, the voltage was decreased to the holding potential (−80 mV). […]
For orientation: hERG is a cardiac potassium channel; its block is linked to QT prolongation.

Data set [2] in a line: Mouse brain homogenate binding. The class given is in vitro ADME. Conditions: 2 μM. The protocol: Mouse brain homogenate was incubated with 2 μM of P1 or 7-Ethoxycoumarin (positive control of degradation). Enzymatic reactions were stopped at timepoints between 0-240 min and samples analysed by LCMS. For test with protease inhibitors, brain homogenate was pre-incubated for 30 minutes with protease inhibitors prior to incubation with P1. For brain homogenate binding, 2 μM of P1 or propranolol (positive control) were added to mouse brain homogenate and incubated at 37° C. for 30 minutes. To prepare the protein-free samples (F samples) to be used for unbound determination, an aliquot of the pre-incubated matrix containing test compound or control compound was transferred to ultracentrifuge tubes and subjected to ultracentrifugation at 37° C., 35000 rpm for 4 hrs. In parallel, brain homogenate was incubated for 4.5 hrs to determine total levels after incubation.

A short description of data set [3]: Liver microsome stability, mouse. It counts as in vitro ADME. Conditions: 2 μM, up to 60 minutes. The protocol:
Reactions were stopped at timepoints between 0-60 min. and samples analysed by LCMS.

For data set [4], the system named is pCREB, TFEB, LAMP1, p62/SQSTM1, PGRN, PGC1a. In words: Pathway engagement in striatum of wild-type mice after SC injection, western blotting. It counts as in vivo, mouse. Conditions: 13 mg/kg SC. The protocol:
Wild-type mice were injected with 13 mg/kg of P1 (SEQ ID NO: 1) subcutaneously in 4.38 mM L-His, 140 mM NaCl, 0.2% Tween-20 and 1500 IU hyaluronidase (pH 6.15). The mice were sacrificed at timepoints between 2-8 hours after injection. Striatal tissue was isolated and the tissue was lysed using a TissueLyser in RIPA lysis buffer containing cOmplete and phosSTOP. Levels of pCREB, TFEB, downstream lysosomal gene products LAMP1, p62/SQSTM1, PGRN and mitochondrial master regulator PGC1a were validated by western blotting. All proteins were normalized to beta-actin levels.

Where a SMILES comes first, the peptide text is derived from it.

T1 sequence (Q12809 whole entry): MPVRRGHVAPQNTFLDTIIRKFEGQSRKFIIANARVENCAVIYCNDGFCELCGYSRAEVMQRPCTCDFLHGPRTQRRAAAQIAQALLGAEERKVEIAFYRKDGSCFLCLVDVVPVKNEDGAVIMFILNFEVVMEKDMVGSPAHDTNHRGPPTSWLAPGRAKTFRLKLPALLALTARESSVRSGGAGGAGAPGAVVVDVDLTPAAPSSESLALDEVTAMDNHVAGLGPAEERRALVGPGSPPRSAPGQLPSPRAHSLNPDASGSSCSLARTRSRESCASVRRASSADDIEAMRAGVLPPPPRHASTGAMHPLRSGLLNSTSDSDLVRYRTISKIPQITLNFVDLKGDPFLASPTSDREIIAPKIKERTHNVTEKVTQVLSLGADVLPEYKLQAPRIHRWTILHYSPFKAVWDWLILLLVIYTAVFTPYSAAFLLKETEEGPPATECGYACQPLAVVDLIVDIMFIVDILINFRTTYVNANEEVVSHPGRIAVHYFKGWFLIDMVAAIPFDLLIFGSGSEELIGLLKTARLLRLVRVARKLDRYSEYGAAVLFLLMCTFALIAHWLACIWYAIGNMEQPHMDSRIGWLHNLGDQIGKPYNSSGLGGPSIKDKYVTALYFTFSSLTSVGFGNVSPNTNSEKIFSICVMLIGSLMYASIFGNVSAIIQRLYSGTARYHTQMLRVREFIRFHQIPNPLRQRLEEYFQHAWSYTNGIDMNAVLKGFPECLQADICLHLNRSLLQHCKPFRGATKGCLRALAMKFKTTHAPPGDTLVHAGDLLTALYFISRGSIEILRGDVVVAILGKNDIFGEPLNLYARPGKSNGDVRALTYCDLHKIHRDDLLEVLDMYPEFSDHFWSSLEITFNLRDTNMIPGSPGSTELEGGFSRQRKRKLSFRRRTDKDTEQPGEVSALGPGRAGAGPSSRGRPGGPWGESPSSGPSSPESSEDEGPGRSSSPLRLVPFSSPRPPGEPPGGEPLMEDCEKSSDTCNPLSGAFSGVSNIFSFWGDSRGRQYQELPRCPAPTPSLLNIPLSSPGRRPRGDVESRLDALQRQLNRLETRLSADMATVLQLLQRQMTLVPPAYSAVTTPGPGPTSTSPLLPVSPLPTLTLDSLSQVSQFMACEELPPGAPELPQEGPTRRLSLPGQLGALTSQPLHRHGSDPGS

On to `CSCC[C@@H]1NC(=O)[C@H](C(C)C)NC(=O)[C@H](CC(=O)O)NC(=O)[C@H](CCC(=O)O)NC(=O)[C@H](CCC(=O)O)NC(=O)[C@H](Cc2c[nH]cn2)NC(=O)[C@H](CCC(=O)O)NC(=O)[C@H](C(C)C)NC(=O)[C@@H]2CCCN2C(=O)[C@H](CCC(=O)O)NC(=O)[C@H]([C@@H](C)O)NC1=O` [Peptide P1, [MTEPVEHEEDV]] (cyclo(MTEPVEHEEDV)), for which, in the data set on cortical neurons (BDNF as positive control), the “survival in drug-dose response study” value is “increases survival”. The compound also returned an EC50 in the data set on cortical neurons (drug-dose response, Example 5) of 2700 nM. In addition, in data set [1] (1 uM every 24 hour for 3 days), the “reduction of mutated Huntingtin (disease-allele, MW1 antibody)” value worked out at 20% and the “total Huntingtin (mab2166)” value is on record as “not lowering the total amount of Huntingtin significantly”. Moreover, the “total HTT levels” value in data set [1] (1 uM, 8 hours of stimulation) is reported as “reduces total HTT levels”. Further, the “effect on hERG current” value at hERG potassium channels is listed as “no effect on hERG current”. For the same compound, the brain homogenate binding result in data set [2] was “less than 20%”. For the same compound, in data set [3], the “clearance and stability in liver microsomes” value is “low clearance and high stability”. The pCREB in striatum result in data set [4] (after 2 hours) was “significantly activates CREB”. Moreover, the pCREB in striatum entry in data set [4] (at 4 hours) is reported as “no significant effect”. In addition, in data set [4] (at 6 hours), the PGC1a in striatum result is recorded as “significantly increased” and the PGRN in striatum result is on record as “significantly increased”. For the same compound, in data set [4] (at 8 hours following injection), the “p62/SQSTM1 levels in striatum (autophagic flux)” value is recorded as “significantly lowered”. In data set [4] (between 2-4 hours), the LAMP1 in striatum entry is on record as “significantly increased” and the TFEB in striatum result is reported as “significantly increased”.
